These results are taken from patent US12117402B2, “Bioluminescent sensor for isothiocyanates” (The United States of America, as represented by the …, priority 2021, dated 2024).

Data set [1] has as its system P. fluorescens SBW25 expressing an ilux operon under control of the saxA promoter. Type of data set: cell-based, Pseudomonas fluorescens SBW25. The following applies: for responsiveness of the biosensor to the compound: FIG. 4. The protocol: (§1) For the basic microplate assay, the reporter biosensor was cultivated overnight in LB media with 50 μg/mL carbenicillin and 15 μg/mL gentamicin. The 200 μL assay was performed in opaque 96-well microtiter plates by adding ITC sample to the reporter cells at a final concentration of 0.05 OD600 in LB medium. All assay plates included cell-only controls (no ITC sample). Luminescence was measured in either a microplate spectrophotometer (Biotek Synergy HT) or a designated luminometer (Molecular Devices Spectramax L) for a 20-hour period in 15-minute intervals with ˜500 RPM shaking. Data were collected using auto-scaled gain or photon counting to increase signal detection. Modifications to the assay for the luxCDABE-based biosensor included a lower bacterial OD600 of 0.005, incubation at 31° C., and measurement every 30 min.
To increase the luminescent signal, the luxCDABE operon of the pHT #3 plasmid was replaced with the enhanced ilux operon that has an additional open reading frame encoding flavin mononucleotide (FMN) reductase and other optimizations (Gregor et al, Proc. Natl. Acad. Sci., (2018) 115(3): 962-967). All other components remained the same as the precursor, and this plasmid was assembled using the Gibson Assembly method (Gibson et al, Nature Meth., (2009) 6(5):343-347). The resulting plasmid, named pHT #9, was integrated into the P. fluorescens SBW25 genome in the same manner as pHT #3.
Plant extracts were prepared from seeds germinated in small petri dishes containing 0.5×Murashige and Skoog Medium and 0.3% agar for up to 4-days under artificial lighting. Germinated seeds and/or seedlings were transferred to 2-mL screwcap tubes containing steel beads. Water was added at a 1:2 ratio of plant weight to water volume. The tissue was macerated and pelleted by centrifugation. Supernatants were diluted prior to use in the basic microplate protocol.
To analyze the ability of the biosensor to detect ITCs in plant residues, seed meal was incubated on a rotating shaker at room temperature for 24 hrs with a 1:10 seed meal:water ratio (by mass) in 2.0 mL microcentrifuge tubes. Centrifuging and assaying of supernatant were conducted as described above for seedlings. Two seed meal types were tested—Sinapis alba (white mustard) and Brassica juncea (Indian mustard)—both of which are used in commercial biofumigation.
Biofumigated soil was collected from a field study in Hermiston, Oregon. The soils were managed in a 3-yr rotation with a Brassica cover crop mix (B. juncea Caliente 199 and Caliente Rojo; allyl ITC). The Brassica cover crop was tilled into the soil the day prior to sampling and the soils were stored frozen until analysis. […] Frozen soils were thawed and subsamples were homogenized (1600 MiniG homogenizer, 1500 RPM, 7 min), and rotated at room temperature for 45 min to allow time for glucosinolate hydrolysis. The sample was centrifuged for 5 min at 4,000×g and 100 μL extract was used in the basic microplate assay.
For analysis of seed meal amended soil, B. napus and S. alba seed meals were each added to a moist silt loam soils at 0.3% and 3% weight/dry weight. The soil/seed meals were mixed, transferred to small zippered bags and stored in gas-impermeable bags at room temperature. Soil amended with wheat straw and unamended soil were included as ITC-free controls.

The subject of data set [2] is P. fluorescens SBW25 expressing the luxCDABE operon under control of the saxA promoter.
From the text: The plasmid vector pUC18T-Tn7T-lux-Gm (Damron et al., Appl. Environ. Microbiol. (2013) 79(13): 4149-4153), which contains Tn7 sites for integration into the P. fluorescens genome, a luxCDABE operon responsible for bioluminescence, and a gentamicin resistance marker. This plasmid also contained a pl promoter, an unregulated promoter upstream of the luxCDABE operon, which was removed and replaced with the desired promoter.
The saxA promoter was PCR amplified from Pseudomonas cannabina and cloned upstream of the luxCDABE gene operon. […] The resulting plasmid containing the luxCDABE operon under control of the saxA promoter was termed pHT #3. This plasmid was transformed into P. fluorescens SBW25, via electroporation and selected for gentamicin resistance.
as §1

For data set [3] the following is noted: aqueous solutions, pH 6; cited from earlier work.

Regarding `N#C[S-].[K+]` [potassium thiocyanate], the “responsiveness of the biosensor to the compound” value (“responsiveness of the biosensor” below) in data set [1] was “did not respond”.

`C[S+]([O-])CCCCN=C=S` (centres unmarked) [sulforaphane]: in data set [2] (0, 25, 50, 75, 100 μM), the “response of luminescence to the amount of ITC” value was “dose dependent response”. Moreover, in data set [2] (100 μM of ITC), the “area under the curve (AUC) value of luminescence” value is listed as 1.5×10^7 and the peak luminescence result is reported as “approximately 700 relative light units (RLUs)”. Also, the “time of peak luminescence after inoculation” value in data set [2] (regardless of the concentration, 0-100 μM) was in the range of 8 to 9 h. In data set [1], the “time of initial peak luminescence” value is 4 to 4.5 h and the “responsiveness of the biosensor” value was “responsive”. In data set [1] (0, 5, 10, 25, 50, 75, 100 μM), the “response of luminescence to the amount of ITC” value is “dose-dependent response”. Besides, in data set [1] (100 μM dose), the “increase in AUC compared to the luxCDABE biosensor” value is 2 fold and the “increase in the maximum RLU compared to the luxCDABE biosensor” value is listed as 7.7 fold. In data set [1] (low-dose range 0-20 μM), the “concentrations detected (limits of detection)” value was in the range of 1 to 2 µM.

Turning to `Oc1ccc(CN=C=S)cc1` [4-hydroxybenzyl ITC], the “responsiveness of the biosensor” value in data set [1] is recorded as “did not respond”. Moreover, in data set [3], the half-life is 6 min.

On to `CNC(=S)S` [Metam-sodium], for which the “responsiveness of the biosensor” value in data set [1] is “responsive”.

In general, half-life refers to the time in which the quantity being followed falls by half.
